From article PMC8072719, “Synthesis and Antiproliferative Activity of Triazoles Based on 2-Azabicycloalkanes” (Materials, 2021)
Like-named read-outs stand apart in the source and are kept apart here.

Legend:
[1] = tested on: NCI-H1581; assay: Growth inhibition assay (SRB assay), lung tumor cell line NCI-H1581; format: cell-based, human; settings: for IC50: Homo sapiens, NCI-H1581, 72 h, 72 h, SRB, mean ± SD; for SI (Selectivity Index): SI = IC50 for normal cell line BALB/3T3 / IC50 for NCI-H1581
Procedure: (§1) Three human cancer cell lines were used to evaluate the antiproliferative activity of the obtained compounds: melanoma cell line Hs294T, pancreatic tumor cell line MIA PaCa-2, and lung tumor cell line NCI-H1581. The normal mouse fibroblasts cell line (BALB/3T3 clone A31) was selected as reference. All these lines were purchased from the ATCC (American Type Culture Collection, Rockville, MD, USA). NCI-H1581 cells were grown in RPMI 1640 with GlutaMax medium (Gibco, Thermo Fisher Scientific, Leicestershire, UK) with 5% fetal bovine serum (FBS; HyClone, GE Healthcare, Logan, UT, USA). Hs294T and BALB/3T3 cells were grown in Dulbecco’s Modified Eagle Medium (DMEM; Gibco, Thermo Fisher Scientific, Leicestershire, UK) supplemented with 2 mM L-glutamine and 10% FBS (HyClone, GE Healthcare, Logan, UT, USA). MIA PaCa-2 cells were grown in DMEM (Gibco, Thermo Fisher Scientific, Leicestershire, UK) supplemented with 2 mM L-glutamine, 2.5% Horse Serum (Gibco, Thermo Fisher Scientific, Leicestershire, UK), and 10% FBS (HyClone, GE Healthcare, Logan, UT, USA). All culture media were supplemented with antibiotics: 100 U/mL penicillin (Polfa Tarchomin SA, Warsaw, Poland) and 100 µg/mL streptomycin (Sigma-Aldrich Chemie GmbH, Steinheim, Germany); cells were grown at 37 °C in a humid atmosphere with 5% CO2.
(§2) Twenty-four hours prior to the addition of the tested compounds, 2000 cells per well of Balb/3T3, MIA PaCa-2, and Hs294T cell lines and 2500 cells of NCI-H1581 cell line were seeded in 384-well plates (Greiner Bio-One, Kremsmünster, Austria) in an appropriate medium. The studied compounds were added to the cells at 8 different concentrations in a series of dilutions from 100 to 0.00001 µg/mL for 72 h. Cisplatin was applied as a reference compound (Teva Pharmaceuticals, Warsaw, Poland). DMSO (Sigma-Aldrich Chemie GmbH, Steinheim, Germany) was used as solvent control. The DMSO concentrations corresponded to the solvent concentrations in the tested compound solutions. Then, 30 µL per well of ice-cold 50% TCA (trichloroacetic acid, Avantor, Gliwice, Poland) was added to the cells. After one hour of incubation at room temperature (RT) cells were washed five times with water and stained with 0.4% SRB (sulforhodamine B, Sigma-Aldrich Chemie GmbH, Steinheim, Germany). Twenty-five microliters per well of 0.4% solution of SRB in 1% acetic acid (Avantor, Gliwice, Poland) was applied. After 0.5 h of incubation at RT, the unbound dye was washed out with 1% acetic acid. The bound dye in each well was dissolved in 70 µl of 10 mM TRIS (Tris base, Sigma-Aldrich, Chemie GmbH, Steinheim, Germany). A microplate reader (BioTek Synergy H4, Swindon, UK) with Gen5 software was used to read the absorbance at 540 nm. The results are presented as mean IC50 values (concentration of the compound that inhibits cell proliferation by 50%) ± standard deviation. Half-maximal inhibitory concentration (IC50) values were calculated using the Prolab-3 system based on Cheburator 0.4 [22]. Each experiment was performed in triplicate, and three independent repetitions were made for each experiment. Raw data and IC50 values were placed in the supplementary materials.

[2] = tested on: BALB/3T3 clone A31; assay: Growth inhibition assay (SRB assay), normal fibroblasts BALB/3T3 clone A31; format: cell-based, mouse; settings: mean ± SD
Procedure: as §1, §2

[3] = tested on: MIA PaCa-2; assay: Growth inhibition assay (SRB assay), pancreatic tumor cell line MIA PaCa-2; format: cell-based, human; settings: Homo sapiens, mean ± SD
Procedure: as §1, §2

[4] = tested on: Hs294T; assay: Growth inhibition assay (SRB assay), melanoma cell line Hs294T; format: cell-based, human; settings: Homo sapiens, Hs 294T, 72 h, mean ± SD
Procedure: as §1, §2

[5] = Solvability in DMSO (table footnote); format: physicochemical; set-up: key to solvability in dimethyl sulfoxide (DMSO): **: poor or no solvability in dimethyl sulfoxide (DMSO); key to solvability in DMSO: [b]: poor or no solvability in DMSO; settings: for solvability in DMSO: supplement
[6] = supplement, read-out: IC50 NCI-H1581 (raw data)
[7] = 72 h, normal cell line, read-out: IC50 BALB3T3
[8] = Mus musculus, BALB/3T3 clone A31, 72 h, normal cell line, read-out: IC50 BALB3T3
[9] = Mus musculus, BALB/3T3 clone A31, 72 h, supplement, read-out: IC50 BALB3T3 (raw data)
[10] = MIA PaCa-2, 72 h, read-out: IC50 MIA PaCa-2
[11] = MIA PaCa-2, supplement, 72 h, read-out: IC50 MIA PaCa-2 (raw data)
[12] = supplement, read-out: IC50 Hs294T (raw data)
[13] = Mus musculus, BALB/3T3 clone A31, 72 h, supplement, read-out: IC50 BALB3T3 (non-rounded data)
[14] = MIA PaCa-2, supplement, 72 h, read-out: IC50 MIA PaCa-2 (non-rounded data)

| IC50 ([1]; read-out: IC50 NCI-H1581) [µM] | IC50 [1, 6] [µg/mL] | IC50 [3, 10] [µM] | IC50 [3, 11] | IC50 ([4]; read-out: IC50 Hs294T) [µM] | IC50 [4, 12] | solvability in dimethyl sulfoxide (DMSO) [5] | solvability in DMSO [5] | IC50 [3, 14] [µM] | IC50 ([4]; supplement, read-out: IC50 Hs294T (non-rounded data)) [µM] | Structure (SMILES) | SI (Selectivity Index) [1] | IC50 [2, 7] [µM] | IC50 [2, 8] [µM] | IC50 [2, 9] | IC50 [2, 13] [µM] |
| --- | --- | --- | --- | --- | --- | --- | --- | --- | --- | --- | --- | --- | --- | --- | --- |
| 20.9 ± 15.2 | 13.4 ± 9.71 | > 100 | > 100 µM | 77.3 ± 9.5 | 49.4 ± 6.07 µg/mL | 14 ** | [b] | > 100 |  | C[C@@H](c1ccccc1)N1C[C@@H](n2cc(-c3ccc(-c4cn([C@@H]5CN([C@@H](C)c6ccccc6)[C@H]6CC[C@@H]5C6)nn4)cc3)nn2)[C@@H]2CC[C@H]1C2 [Compound 14, 1,4-Bis-(1-((1S,4S,5R)-2-((S)-1-phenylethyl)-2-azabicyclo[3.2.1]octan-4-yl)-1H-1,2,3-triazol-4-yl) benzene] |  |  | > 100 | > 100 µM | > 100 |
| 6.87 ± 1.46 | 4.39 ± 0.93 | 111 ± 9.55 | 71.2 ± 6.1 µg/mL | 58.8 ± 4.07 | 37.6 ± 2.6 µg/mL | 15 ** | [b] |  |  | C[C@@H](c1ccccc1)N1C[C@H](n2cc(-c3ccc(-c4cn([C@H]5CN([C@@H](C)c6ccccc6)[C@H]6CC[C@@H]5C6)nn4)cc3)nn2)[C@@H]2CC[C@H]1C2 [Compound 15, 1,4-Bis-(1-((1S,4R,5R)-2-((S)-1-phenylethyl)-2-azabicyclo[3.2.1]octan-4-yl)-1H-1,2,3-triazol-4-yl) benzene] | 9 |  | 59.5 ± 11.7 | 38 ± 7.48 µg/mL |  |

The next lines start with the molecule.

| Structure (SMILES) | IC50 ([1]; read-out: IC50 NCI-H1581) [µM] | IC50 [1, 6] [µg/mL] | IC50 [3, 10] [µM] | IC50 [3, 11] | IC50 ([4]; read-out: IC50 Hs294T) [µM] | IC50 [4, 12] | solvability in dimethyl sulfoxide (DMSO) [5] | solvability in DMSO [5] | IC50 [3, 14] [µM] | IC50 ([4]; supplement, read-out: IC50 Hs294T (non-rounded data)) [µM] | SI (Selectivity Index) [1] | IC50 [2, 7] [µM] | IC50 [2, 8] [µM] | IC50 [2, 9] | IC50 [2, 13] [µM] |
| --- | --- | --- | --- | --- | --- | --- | --- | --- | --- | --- | --- | --- | --- | --- | --- |
| C[C@@H](c1ccccc1)N1C[C@H](n2cc(CCCc3cn([C@H]4CN([C@@H](C)c5ccccc5)[C@H]5CC[C@@H]4C5)nn3)nn2)[C@@H]2CC[C@H]1C2 [Compound 11, 1,3-Bis-(1-((1S,4R,5R)-2-((S)-1-phenylethyl)-2-azabicyclo[3.2.1]octan-4-yl)-1H-1,2,3-triazol-4-yl) propane] | 4.4 ± 0.61 | 2.66 ± 0.37 | 37.6 ± 5.51 | 22.7 ± 3.33 µg/mL | 9.71 ± 3.08 | 5.87 ± 1.86 µg/mL | 11 ** | [b] |  |  | 6 | 26.7 ± 4.76 | 26.7 | 16.2 ± 2.88 µg/mL |  |
| C[C@@H](c1ccccc1)N1C[C@H](n2cc(COCc3cn([C@H]4CN([C@@H](C)c5ccccc5)[C@H]5CC[C@@H]4C5)nn3)nn2)[C@@H]2CC[C@H]1C2 [Compound 13, (1S,1′S,4R,4′R,5R,5′R)-4,4′-(4,4′-(oxybis(methylene))bis(1H-1,2,3-triazole-4,1-diyl))bis(2-((S)-1-phenylethyl)-2-azabicyclo[3.2.1]octane)] | 4.88 ± 0.41 | 2.96 ± 0.25 | 44.9 ± 3.69 | 27.2 ± 2.24 µg/mL | 13.7 ± 2.31 | 8.28 ± 1.4 µg/mL |  |  |  |  | 9 | 46.1 ± 11.3 | 46.1 | 27.9 ± 6.85 µg/mL |  |
| C[C@@H](c1ccccc1)N1C[C@@H](n2cc(-c3cccc(-c4cn([C@@H]5CN([C@@H](C)c6ccccc6)[C@H]6CC[C@@H]5C6)nn4)c3)nn2)[C@@H]2CC[C@H]1C2 [Compound 16, 1,3-Bis-(1-((1S,4S,5R)-2-((S)-1-phenylethyl)-2-azabicyclo[3.2.1]octan-4-yl)-1H-1,2,3-triazol-4-yl) benzene] | 53.9 ± 5.07 | 34.5 ± 3.24 | > 100 | > 100 µM | > 100 | > 100 µM | 16 ** | [b] | > 100 | > 100 |  |  | > 100 | > 100 µM | > 100 |
